Tested on: AMP-activated Protein Kinase (AMPK)
Assay: Hippocampal AMPK (western blot) after 10 days of oral drinking
Format: in vivo, Wistar rats
Details: oral by drinking 100 mg/Kg for 10 days, hippocampus, FIG. 10
Procedure: Animal experimental procedures were carried out in accordance with the European Communities directive 2010/63/EU and Spanish legislation (Real Decreto 53/2013). The protocol was approved by the Research and approved by Ethics Committee for Animal Experiments of the University of Malaga, Spain. In accordance with the ARRIVE guidelines, all efforts were made to minimize animal suffering and to reduce the number of animals used per experimental group. Chronic drinking experiments on Wistar rats were performed on 20 male rats. All adult rats, ageing 2 months (≈300 g of body weight), were provided by Charles River Laboratories (Barcelona, Spain). The animals were housed individually under a standard 12 h light-dark cycle in a room with temperature and humidity control. Water and rat chow pellets were provided ad libitum throughout the course of the present study. […]
Western Blot Analysis. […] Bands were quantified by densitometric analysis using ImageJ software (Rasband, WS, ImageJ, US National Institutes of Health, Bethesda, Md., USA). […] The results were expressed as the protein/α-Adaptin ratio or phosphorylated/total protein ratio and normalized to the control group (Y axis represents ‘fold mean of the control values’).
All data are expressed as mean±SEM. […]

SMILES: COC1[C@@H](O)[C@@H](O)C(O)[C@H](O)[C@H]1O (stereo partly drawn) [DPIN, (1S,2S,4S,5R)-6-methoxycyclohexane-1,2,3,4,5-pentol]
- kinase activation and total expression of AMPK: No other changes
